{
  "source": "patent US8927588B2",
  "about": "“Imidazole carbonyl compound” (Daiichi Sankyo Company, Limited, priority 2007, dated 2015)",
  "key": {"[1]": {"biological_target": "ParE of Haemophilus influenzae (Haemophilus influenzae, UniProt P43703)", "sequence (P43703 whole entry)": "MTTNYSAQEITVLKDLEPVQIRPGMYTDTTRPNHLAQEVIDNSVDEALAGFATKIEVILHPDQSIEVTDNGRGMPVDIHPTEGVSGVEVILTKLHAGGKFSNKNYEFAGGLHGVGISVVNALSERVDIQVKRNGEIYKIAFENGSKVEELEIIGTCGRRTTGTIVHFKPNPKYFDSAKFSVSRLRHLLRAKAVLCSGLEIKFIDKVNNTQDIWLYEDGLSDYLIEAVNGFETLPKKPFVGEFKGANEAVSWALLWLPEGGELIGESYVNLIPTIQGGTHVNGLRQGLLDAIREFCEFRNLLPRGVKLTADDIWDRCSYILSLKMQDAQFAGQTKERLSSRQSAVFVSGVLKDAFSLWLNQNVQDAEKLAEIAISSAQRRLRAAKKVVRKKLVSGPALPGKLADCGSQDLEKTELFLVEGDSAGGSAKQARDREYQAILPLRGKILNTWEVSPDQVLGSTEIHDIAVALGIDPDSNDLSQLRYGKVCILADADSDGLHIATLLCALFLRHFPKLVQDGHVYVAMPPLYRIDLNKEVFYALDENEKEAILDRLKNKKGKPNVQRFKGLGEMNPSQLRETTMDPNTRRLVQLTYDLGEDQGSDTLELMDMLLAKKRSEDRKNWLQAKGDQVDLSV", "test": "ATP hydrolysis inhibition assay (pyruvate kinase/lactate dehydrogenase coupled), ParE of Haemophilus influenzae", "type": "biochemical", "procedure": "The ATP hydrolysis activity of GyrB and ParE was determined by correlating it with ADP production and NADH oxidation mediated by pyruvate kinase/lactate dehydrogenase. This method has been previously reported (Tamura, J. K. and Gellert, M. 1990, J. Biol. Chem. 265:21342-21349).\nThe ATP hydrolysis assay was carried out in a buffer solution containing final concentrations of 100 mM Tris-HCl (pH 7.5), 150 mM KCl, 1.5 mM MgCl2, 0.4 mM nicotinamide adenine dinucleotide (NADH), 2.5 mM phosphoenolpyruvate, 1 mM DTT, 15 U/ml pyruvate kinase, 10.5 U/ml lactate dehydrogenase and 1 mU/ml enzyme (GyrB or ParE of Streptococcus pneumoniae or Haemophilus influenzae) (provided that the concentration of KCl was 25 mM and the concentration of MgCl2 was 10 mM in the case of ParE of Haemophilus influenzae). A solution of the test compound serially four-fold diluted in DMSO:MeOH (7:3) was added at a final concentration of 5% (v/v). […] ATP was added at a final concentration of 1 mM; after mixing, the absorbance at 340 nm (amount of NADH) was determined (provided that the final ATP concentration was 0.3 mM in the case of ParE of Haemophilus influenzae). The reaction solution was incubated at 30° C. for two hours, and then the absorbance at 340 nm was determined. The ATP hydrolysis inhibition rate (%) was calculated from the difference in absorbance before and after the incubation (amount of NADH oxidized). […]"}, "HeLa cell proliferation": {"test_system": "HeLa cell proliferation", "test": "Cytotoxicity test, HeLa cell proliferation (MTS-PMS)", "type": "cell-based", "conditions": "human, HeLa cells, 48 hours incubation, read-out: IC50 (cytotoxicity, proliferation inhibition)", "procedure": "50 μL of a HeLa cell solution containing 80000 cells/mL was inoculated into each well of a 96-well microplate, and the mixture was incubated at 37° C. in a 5% carbon dioxide incubator for 24 hours. Thereafter, a medium containing the test compound serially four-fold diluted was added at 50 μL to each well, and the mixture was incubated at 37° C. in a 5% carbon dioxide incubator for 48 hours. As a control with an inhibition rate of 0%, a well not containing the test compound was also prepared. Following washing with phosphate buffered saline, a MTS [3-(4,5-dimethylthiazol-2-yl)-5-(3-carboxymethoxyphenyl)-2-(4-sulphophenyl)-2H-tetrazolium, inner salt]-PMS (phenazine methosulfate) coloring reagent solution was added, and the mixture was allowed to stand at 37° C. in a 5% carbon dioxide incubator for 1.5 hours. Thereafter, the absorbance at 490 nm was determined. The 50% inhibition concentration (IC50) was calculated from the proliferation inhibition rate (%) in the presence of four different concentrations of the test compound."}, "[2]": {"test": "Solubility in water (JP1 fluid / JP2 fluid)", "type": "physicochemical", "conditions": "thermodynamic from solid, room temperature"}, "Haemophilus influenzae": {"test_system": "Haemophilus influenzae", "test": "Sensitivity of bacteria, broth microdilution method (MIC)", "type": "cell-based", "conditions": "medium obtained by mixing hemophilus test medium with human serum at a ratio of 1:1", "procedure": "The antibacterial activity of the compounds of the present invention was tested by sensitivity tests by the broth microdilution method. The assay was carried out according to the latest CLSI guidelines for managing the procedures of sensitivity tests: “M7-A7 Methods for Dilution Antimicrobial Susceptibility Tests for Bacteria That Grow Aerobically; Approved Standard—Seventh Edition (2006)”. Test strains were grown on appropriate agar plates overnight. A broth containing the test compound serially two-fold diluted was dispensed at 100 μL to each well of a 96-well microplate. As a growth control, a well with a broth not containing the test compound was also prepared. Colonies grown on the plates were suspended in saline, adjusted to 0.5 McFarland (OD625=0.08 to 0.10) using a colorimeter, and then diluted ten-fold with saline. The bacterial suspension was inoculated at 4 μL into each well of the microplate using a bacterial suspension inoculation apparatus. The inoculated microplate was incubated at 35° C. overnight (about 20 hours). The growth condition was observed by the naked eye, and the minimum concentration to inhibit bacterial proliferation was defined as a minimum inhibitory concentration (MIC)."}},
  "note": "Where two headings read alike, the source gives them in different places.",
  "data": [
    {"smiles": "CO[C@H]1CN(c2nc3cccc(C(=O)O)c3s2)CC[C@H]1NC(=O)c1nc(Cl)c(C)[nH]1", "note": "(racemic) [Example 8, cis(±)-2-(4-{[(4-Chloro-5-methyl-1H-imidazol-2-yl)carbonyl]amino}-3-methoxypiperidin-1-yl)-1,3-benzothiazole-7-carboxylic acid]", "values": [
      {"measurement": "IC50", "setting": "[1]", "value": 131, "unit": "nM"},
      {"measurement": "IC50 at 48 h", "setting": "HeLa cell proliferation", "value": "> 200", "unit": "µg/mL"},
      {"measurement": "solubility", "setting": "[2]; pH 1.2, simulated gastric fluid, 1st fluid for the disintegration test of the Japanese Pharmacopoeia, read-out: solubility in JP1 fluid", "value": 100, "unit": "µg/mL"},
      {"measurement": "solubility", "setting": "[2]; pH 6.8, aqueous buffer, 2nd fluid for the disintegration test of the Japanese Pharmacopoeia, read-out: solubility in JP2 fluid", "value": 720, "unit": "µg/mL"},
      {"measurement": "MIC", "setting": "Haemophilus influenzae", "value": 4, "unit": "µg/mL"}
    ]}
  ]
}
